The values below come from patent publication US8450313B2, “2,3-diaryl- or heteroaryl-substituted 1,1,1-trifluoro-2-hydroxypropyl compounds” (Hoffmann-La Roche Inc., priority 2009, dated 2013).

This test has as its target T1, full length human recombinant glucocorticoid receptor (Homo sapiens, UniProt P04150).
T1 construct: It contains some partially purified full length human recombinant glucocorticoid receptor; purchased Panvera/Invitrogen PV4302
T1 sequence (P04150 1-777): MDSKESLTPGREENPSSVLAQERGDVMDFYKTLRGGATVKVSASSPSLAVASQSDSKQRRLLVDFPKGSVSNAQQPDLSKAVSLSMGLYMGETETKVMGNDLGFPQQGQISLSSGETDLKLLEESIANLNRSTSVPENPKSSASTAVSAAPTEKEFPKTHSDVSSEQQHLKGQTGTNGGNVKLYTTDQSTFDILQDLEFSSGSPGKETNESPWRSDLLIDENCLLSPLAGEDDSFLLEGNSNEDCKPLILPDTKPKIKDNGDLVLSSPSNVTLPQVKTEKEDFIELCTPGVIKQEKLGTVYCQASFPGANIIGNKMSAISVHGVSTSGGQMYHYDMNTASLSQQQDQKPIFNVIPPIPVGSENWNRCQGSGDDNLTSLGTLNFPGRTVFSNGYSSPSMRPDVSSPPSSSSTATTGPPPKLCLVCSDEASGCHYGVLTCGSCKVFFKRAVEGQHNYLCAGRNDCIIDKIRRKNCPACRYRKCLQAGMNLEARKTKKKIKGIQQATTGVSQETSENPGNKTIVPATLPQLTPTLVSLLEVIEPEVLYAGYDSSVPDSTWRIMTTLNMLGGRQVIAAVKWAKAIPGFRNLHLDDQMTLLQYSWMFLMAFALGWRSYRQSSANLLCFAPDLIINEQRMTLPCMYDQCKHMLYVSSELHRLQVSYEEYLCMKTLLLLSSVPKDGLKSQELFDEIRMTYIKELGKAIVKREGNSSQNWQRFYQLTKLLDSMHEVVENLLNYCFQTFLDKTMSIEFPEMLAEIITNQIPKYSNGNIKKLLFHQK
The experiment in a line: Glucocorticoid Receptor Binding Assay (Glucocorticoid Receptor Competitor Assay far red kit, fluorescence polarization). Particulars: competition with fluorescent GR ligand Fluormone GS Far Red, 3 hours at 22° C., pH 7.4; Ki calculated from IC50 by Cheng-Prusoff. The procedure, abridged: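 Fluorescence polarization competition with partially purified full-length human recombinant GR, stabilizing peptide and Fluormone GS Far Red tracer in screening buffer pH 7.4; 3 hours at 22° C in the dark, read at 610–660 nm. IC50 from sigmoidal fit; Ki by Cheng-Prusoff.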
In the case of `CCOC(=O)c1ccc(COc2ccc(Cl)c([C@H](C)[C@](O)(c3ccc4c(c3)N(C)C(=O)CO4)C(F)(F)F)c2)cc1` (stereo in doubt) [Example 1, 4-{4-Chloro-3-[3,3,3-trifluoro-2-hydroxy-1-methyl-2-(4-methyl-3-oxo-3,4-dihydro-2H-benzo[1,4]oxazin-6-yl)-propyl]-phenoxymethyl}-benzoic acid ethyl ester], the Ki was 9.7 nM.
In the case of `CCOC(=O)c1cc(-c2ccc([C@H](C)[C@](O)(c3ccc4oc(=O)n(C)c4c3)C(F)(F)F)c(Cl)c2)ccc1F` (relative stereo) [Example 121, 3′-Chloro-4-fluoro-4′-[3,3,3-trifluoro-2-hydroxy-1-methyl-2-(3-methyl-2-oxo-2,3-dihydro-benzooxazol-5-yl)-propyl]-biphenyl-3-carboxylic acid ethyl ester], the Ki is 1.6 nM.
In the case of `C[C@@H](c1ccc(C(=O)O)cc1Cl)[C@](O)(c1ccc2c(c1)N(C)C(=O)CO2)C(F)(F)F` (relative stereo) [Example 43, 3-Chloro-4-[3,3,3-trifluoro-2-hydroxy-1-methyl-2-(4-methyl-3-oxo-3,4-dihydro-2H-benzo[1,4]oxazin-6-yl)-propyl]-benzoic acid], the Ki is 261 nM.
For the compound `C[C@@H](c1cc(OCC(=O)O)ccc1Cl)[C@](O)(c1ccc2c(c1)N(C)C(=O)CO2)C(F)(F)F` (relative stereo) [Example 4, {4-Chloro-3-[3,3,3-trifluoro-2-hydroxy-1-methyl-2-(4-methyl-3-oxo-3,4-dihydro-2H-benzo[1,4]oxazin-6-yl)-propyl]-phenoxy}-acetic acid], the Ki was 426 nM.
As to `C[C@H](c1ccc(-c2ccc(C(=O)O)nc2)cc1Cl)[C@@](O)(c1ccc2c(c1)n(C)c(=O)n2C)C(F)(F)F` (relative stereo) [Example 84, 5-{3-Chloro-4-[2-(1,3-dimethyl-2-oxo-2,3-dihydro-1H-benzoimidazol-5-yl)-3,3,3-trifluoro-2-hydroxy-1-methyl-propyl]-phenyl}-pyridine-2-carboxylic acid], the Ki was 11.9 nM.
As for `COC(=O)c1cnc(Oc2ccc([C@@H](C)[C@@](O)(c3ccc4oc(=O)n(C)c4c3)C(F)(F)F)c(Cl)c2)nc1` (relative stereo) [Example 202, 2-{3-Chloro-4-[3,3,3-trifluoro-2-hydroxy-1-methyl-2-(3-methyl-2-oxo-2,3-dihydro-benzooxazol-5-yl)-propyl]-phenoxy}-pyrimidine-5-carboxylic acid methyl ester], the Ki was 1.8 nM.
Consider `C[C@H](c1ccc(Oc2ncc(C(=O)O)cc2Cl)cc1Cl)[C@@](O)(c1ccc2oc(=O)n(C)c2c1)C(F)(F)F` (stereo in doubt) [Example 180, 5-Chloro-6-{3-chloro-4-[3,3,3-trifluoro-2-hydroxy-1-methyl-2-(3-methyl-2-oxo-2,3-dihydro-benzooxazol-5-yl)-propyl]-phenoxy}-nicotinic acid], for which the Ki was 1 nM.
`COC(=O)c1ccc(Oc2ccc([C@@H](C)[C@@](O)(c3ccc4c(c3)N(C)C(=O)CO4)C(F)(F)F)c(Cl)c2)cc1Cl` (single isomer, unassigned) [Example 216]: the Ki is 60.2 nM.
Regarding `C[C@H](c1ccc(-c2ccc(C(=O)O)c(F)c2)cc1Cl)[C@@](O)(c1ccc2c(c1)OCC(=O)N2C)C(F)(F)F` (stereo in doubt) [Example 164, 3′-Chloro-3-fluoro-4′-[3,3,3-trifluoro-2-hydroxy-1-methyl-2-(4-methyl-3-oxo-3,4-dihydro-2H-benzo[1,4]oxazin-7-yl)-propyl]-biphenyl-4-carboxylic acid], the Ki was 7.5 nM.
For `C[C@H](c1ccc(-c2ccc(C(=O)O)c(F)c2)cc1Cl)[C@@](O)(c1cnc2c(c1)N(C)C(=O)CO2)C(F)(F)F` (stereo in doubt) [Example 52, 3′-Chloro-3-fluoro-4′-[3,3,3-trifluoro-2-hydroxy-1-methyl-2-(1-methyl-2-oxo-2,3-dihydro-1H-pyrido[2,3-b][1,4]oxazin-7-yl)-propyl]-biphenyl-4-carboxylic acid], the Ki was 122 nM.
With `C[C@H](c1ccc(Oc2ccc(C(=O)O)c(F)c2)cc1Cl)[C@@](O)(c1ccc2oc(=O)n(C)c2c1)C(F)(F)F` (stereo in doubt) [Example 177, 4-{3-Chloro-4-[3,3,3-trifluoro-2-hydroxy-1-methyl-2-(3-methyl-2-oxo-2,3-dihydro-benzooxazol-5-yl)-propyl]-phenoxy}-2-fluoro-benzoic acid] the figure was 1.3 nM.
For `C[C@H](c1ccc(C(=O)NCC(=O)O)cc1Cl)[C@@](O)(c1ccc2oc(=O)n(C)c2c1)C(F)(F)F` (stereo in doubt) [Example 232, {3-Chloro-4-[3,3,3-trifluoro-2-hydroxy-1-methyl-2-(3-methyl-2-oxo-2,3-dihydrobenzooxazol-5-yl)-propyl]-benzoylamino}-acetic acid], the Ki is 92.4 nM.
With `COc1ccc(Cl)c([C@@H](C)[C@@](O)(c2ccc3oc(=O)n(C)c3c2)C(F)(F)F)c1` (stereo in doubt) [Example 192, 5-[2-(2-Chloro-5-methoxy-phenyl)-1-hydroxy-1-trifluoromethyl-propyl]-3-methyl-3H-benzooxazol-2-one], the Ki is 0.8 nM.
`C[C@H](c1ccc(Oc2cnc(C(=O)O)cn2)cc1Cl)[C@@](O)(c1ccc2c(c1)N(C)C(=O)CO2)C(F)(F)F` (racemic) [Example 228, 5-{3-Chloro-4-[3,3,3-trifluoro-2-hydroxy-1-methyl-2-(4-methyl-3-oxo-3,4-dihydro-2H-benzo[1,4]oxazin-6-yl)-propyl]-phenoxy}-pyrazine-2-carboxylic acid]: the Ki was 10.6 nM.
For `CC(c1ccc(Oc2ccc(C(=O)O)cc2Cl)cc1Cl)C(O)(c1ccc2c(c1)n(C)c(=O)n2C)C(F)(F)F` (stereo not drawn) [Example 87, 3-Chloro-4-{3-chloro-4-[2-(1,3-dimethyl-2-oxo-2,3-dihydro-1H-benzoimidazol-5-yl)-3,3,3-trifluoro-2-hydroxy-1-methyl-propyl]-phenoxy}-benzoic acid] the value was 3.7 nM.
In the case of `C[C@H](c1ccc(Oc2ccc(C(=O)O)cc2)cc1Cl)[C@@](O)(c1ccc2c(c1)n(C)c(=O)n2C)C(F)(F)F` (relative stereo) [Example 98, 4-{3-Chloro-4-[2-(1,3-dimethyl-2-oxo-2,3-dihydro-1H-benzoimidazol-5-yl)-3,3,3-trifluoro-2-hydroxy-1-methyl-propyl]-phenoxy}-benzoic acid], the Ki is 1.6 nM.
On to `COc1cc(-c2ccc([C@@H](C)[C@@](O)(c3ccc4oc(=O)n(C)c4c3)C(F)(F)F)c(Cl)c2)ccc1C(=O)O` (stereo in doubt) [Example 132, 3′-Chloro-3-methoxy-4′-[3,3,3-trifluoro-2-hydroxy-1-methyl-2-(3-methyl-2-oxo-2,3-dihydro-benzooxazol-5-yl)-propyl]-biphenyl-4-carboxylic acid], for which the Ki is 3 nM.
Consider `C[C@@H](c1cc(Oc2cccc(C(=O)O)c2)ccc1Cl)[C@](O)(c1ccc2c(c1)N(C)C(=O)CO2)C(F)(F)F` (stereo in doubt) [Example 6, 3-{4-Chloro-3-[3,3,3-trifluoro-2-hydroxy-1-methyl-2-(4-methyl-3-oxo-3,4-dihydro-2H-benzo[1,4]oxazin-6-yl)-propyl]-phenoxy}-benzoic acid], for which the Ki was 4.8 nM.

In general, Ki refers to a measure of affinity in units of concentration, obtained from inhibition or displacement.
